No end group written: not given here.
Key:
[1] = cited from earlier work
[2] = molecular target: T1, circulating DPP-IV in human serum (Homo sapiens, UniProt P27487); test: Ex vivo circulating DPP-IV activity assay in human serum (Gly-Pro-AMC); assay type: biochemical; conditions: 24 h at 37 °C, 50 µM Gly-Pro-AMC final, three experiments in triplicate
T1 construct: a soluble form of DPP-IV lacking the cytoplasmic and transmembrane domains is present in plasma and other body fluids; from tissue; host or cells: human serum from a healthy volunteer
T1 sequence (P27487 39-766 limits assumed): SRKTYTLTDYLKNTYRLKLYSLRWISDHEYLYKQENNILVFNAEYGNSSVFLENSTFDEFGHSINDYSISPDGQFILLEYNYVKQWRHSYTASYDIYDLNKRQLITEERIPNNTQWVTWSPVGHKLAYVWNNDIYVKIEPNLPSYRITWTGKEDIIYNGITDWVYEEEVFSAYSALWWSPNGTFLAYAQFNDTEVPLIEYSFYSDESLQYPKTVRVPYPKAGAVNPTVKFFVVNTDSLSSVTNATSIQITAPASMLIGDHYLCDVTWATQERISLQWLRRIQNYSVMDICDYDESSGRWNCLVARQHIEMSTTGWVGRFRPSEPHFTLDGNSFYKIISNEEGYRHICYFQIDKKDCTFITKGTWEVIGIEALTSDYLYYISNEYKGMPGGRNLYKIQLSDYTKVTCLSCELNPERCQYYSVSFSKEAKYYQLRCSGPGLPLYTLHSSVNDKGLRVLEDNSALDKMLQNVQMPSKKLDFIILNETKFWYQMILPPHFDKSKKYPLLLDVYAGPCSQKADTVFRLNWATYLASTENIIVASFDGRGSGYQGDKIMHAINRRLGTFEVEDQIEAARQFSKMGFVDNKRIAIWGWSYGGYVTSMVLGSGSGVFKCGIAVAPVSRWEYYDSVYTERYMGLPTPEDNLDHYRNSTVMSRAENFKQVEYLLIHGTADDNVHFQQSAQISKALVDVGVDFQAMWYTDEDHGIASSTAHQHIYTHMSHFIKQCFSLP
Procedure: Human serum samples prepared from freshly collected venous blood from a healthy volunteer were aliquoted 40 µL/well in black 96-well plates and 10 µL of each inhibitor were added for 24 h at 37 °C. […] Subsequently, 50 µL of 100 µM Gly-Pro-AMC was added to each well to achieve a final substrate concentration of 50 µM.

[3] = molecular target: T2, DPP-IV (in situ, human intestinal Caco-2 cells) (Homo sapiens, UniProt P27487); test: In situ DPP-IV activity assay on 2-, 4- and 6-day Caco-2 cells (Gly-Pro-AMC); conditions: for reduction of in situ DPP-IV activity vs control: 2-day Caco-2 cells, 100 µM peptide, 1 h pre-incubation, 50 µM Gly-Pro-AMC, 10 min, three experiments in triplicate
T2 sequence (P27487 whole entry): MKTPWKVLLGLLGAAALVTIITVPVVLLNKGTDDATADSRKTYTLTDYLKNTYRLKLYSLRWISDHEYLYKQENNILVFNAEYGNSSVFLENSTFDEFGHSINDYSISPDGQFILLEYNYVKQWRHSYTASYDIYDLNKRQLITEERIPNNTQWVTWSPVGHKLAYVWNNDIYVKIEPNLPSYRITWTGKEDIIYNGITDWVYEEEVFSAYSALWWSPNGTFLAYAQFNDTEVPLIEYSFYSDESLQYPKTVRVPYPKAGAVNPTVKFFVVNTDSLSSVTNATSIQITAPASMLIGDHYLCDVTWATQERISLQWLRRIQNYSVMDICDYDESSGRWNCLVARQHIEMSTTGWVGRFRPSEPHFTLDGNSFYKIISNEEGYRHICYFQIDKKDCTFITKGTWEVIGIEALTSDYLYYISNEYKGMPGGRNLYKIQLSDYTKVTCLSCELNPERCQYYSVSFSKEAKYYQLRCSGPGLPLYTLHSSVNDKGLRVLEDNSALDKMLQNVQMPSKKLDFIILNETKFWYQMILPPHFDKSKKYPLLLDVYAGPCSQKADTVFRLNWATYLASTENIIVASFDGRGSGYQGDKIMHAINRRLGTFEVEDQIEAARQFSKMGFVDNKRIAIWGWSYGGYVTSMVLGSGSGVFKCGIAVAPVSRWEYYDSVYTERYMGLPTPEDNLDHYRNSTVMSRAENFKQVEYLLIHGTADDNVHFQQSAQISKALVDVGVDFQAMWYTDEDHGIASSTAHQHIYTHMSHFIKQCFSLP
Procedure: (§1) Caco-2 cells, obtained from INSERM (Paris, France), were routinely sub-cultured at 50% density [22] and maintained at 37 °C in a 90% air/10% CO2 atmosphere in DMEM containing 25 mM of glucose, 3.7 g/L of NaHCO3, 4 mM of stable L-glutamine, 1% nonessential amino acids, 100 U/L of penicillin, and 100 µg/L of streptomycin (complete medium), supplemented with 10% heat-inactivated fetal bovine serum (FBS; Hyclone Laboratories, Logan, UT, USA).
(§2) The medium was regularly changed three times a week. Caco-2 cells DPP-IV activity was assayed on days 2, 4, and 6 from seeding.

[4] = molecular target: T2, DPP-IV (in situ, human intestinal Caco-2 cells)
Procedure: as §1, §2

[5] = system: intestinal Caco-2 cells; conditions: cited from earlier work
Procedure: Considered all of these aspects, using live intestinal Caco-2 cells, experiments were performed to investigate in detail the ability of Lup1 and Soy1 to inhibit DPP-IV activity, in the presence of BB proteolytic activity.

decrease of circulating DPP-IV activity vs control ([2]; 100 µM peptide) | decrease of circulating DPP-IV activity vs control ([2]; 300 µM peptide) | IC50 [3] | reduction of in situ DPP-IV activity vs control [3] | in situ IC50 compared with in vitro IC50 [4] | Compound | absorption in vivo (in words) [1] | breakdown fragments formed ([5]; Caco-2 cells, already after 2 h of incubation) | susceptibility to intestinal endopeptidases (in words) ([5]; Caco-2 cells) | in situ IC50 compared with in vitro IC50 (in words) ([3]; 2-day Caco-2 IC50 vs in vitro purified enzyme IC50) | stability to apical proteases (in words) ([5]; differentiated Caco-2 cells, apical proteases, after 4 h of incubation) | absorption by Caco-2 cells (in words) ([5]; differentiated intestinal Caco-2 cells)
– | – | – | – | – | N[C@@H](CC(=O)N1CCn2c(nnc2C(F)(F)F)C1)Cc1cc(F)c(F)cc1F [sitagliptin, Sitagliptin] | rapidly absorbed | – | – | – | – | –
27.7% | 35.0% | 223 µM | 50% | 2 fold | IAVPTGVA [Soy1] | – | IAVPT and AVPTGVA | susceptible to the action of intestinal endopeptidases | – | – | –
18.1% | 24.7% | 207 µM | 50% | – | LTFPGSAED [Lup1] | – | – | – | in agreement with that obtained with the in vitro assay | not degraded | absorbed intact

— article PMC6115767, “Soybean- and Lupin-Derived Peptides Inhibit DPP-IV Activity on In Situ Human Intestinal Caco-2 Cells and Ex Vivo Human Serum” (Nutrients, 2018)
